Measured values: patent publication US20020137023A1, “Methods and compositions for targeting compounds to muscle” (Auburn University, priority 1997, published 2002)

Legend:
Assay in all cases: in vivo phage display selection, frequency of selected clone
cardiac muscle [1] = test system: cardiac muscle; set-up: species or system dog; details: for FREQUENCY (of selected phage clone among clones sequenced): 3 in vivo rounds in cardiac muscle, dog
Method: (§1) In round one of selection, the phage library is injected intravenously and multiple tissues may be recovered. In subsequent rounds, the phage purified from specific tissues recovered in round one is injected intravenously, and thus, only that tissue is recovered. In rounds 2-4, separate animals are needed for each tissue being examined. After the last round, the phages are plated on a lawn of bacteria and a number of phage plaques are isolated and the DNA sequenced. Of these a certain percentage will represent the dominant selected clone. FIG. 2 provides a scheme for selection of tissue specific phage.
(§2) In the Table, “Four rounds of selection . . . ,” means that in round 1, the phage library was injected intravenously, and a specific tissue was recovered. In round 1, multiple tissues are recovered from one animal (skeletal muscle, cardiac muscle, etc.). In any subsequent round, the phage purified from a specific tissue is injected intravenously, and only that tissue is recovered. Thus, in rounds 2-4, separate animals are needed for each tissue being examined. After the last round, the phage are plated on a lawn of bacteria and a number of phage plaques are isolated and the DNA sequenced. This is represented in the Table by “number of phage clones sequenced.” Of these, a certain percentage will represent the dominant selected clone.
(§3) The experiments disclosed herein, represent the first in vivo selection in any species other than mouse. Generally, phage was left to circulate for one hour.

skeletal muscle = test system: skeletal muscle
Method: as §1, §2, §3

cardiac muscle [2] = details: mouse
Method: as §1, §2, §3

murine muscle = test system: murine muscle; set-up: species or system mouse; details: four rounds in vivo
Method: as §1
In the Table, “Four rounds of selection . . . ,” means that in round 1, the phage library was injected intravenously, and a specific tissue was recovered. In round 1, multiple tissues are recovered from one animal (skeletal muscle, cardiac muscle, etc.). In any subsequent round, the phage purified from a specific tissue is injected intravenously, and only that tissue is recovered. Thus, in rounds 2-4, separate animals are needed for each tissue being examined. After the last round, the phage are plated on a lawn of bacteria and a number of phage plaques are isolated and the DNA sequenced. This is represented in the Table by “number of phage clones sequenced.” Of these, a certain percentage will represent the dominant selected clone. […]

neuro muscular tissue = details: 4 in vivo rounds in neural muscular tissue; mouse
Method: as §1, §2, §3

[3] = 4 in vivo rounds in cardiac muscle
[4] = 4 in vivo rounds in skeletal muscle, mouse

Q: “CGHHPVYAC (Phage display library peptides) [Cys-Gly-His-His-Pro-Val-Tyr-Ala-Cys]” was tested. Which “FREQUENCY (of selected phage clone among clones sequenced)” value (cardiac muscle [1]) did it give?
A: The value was 20%.

Q: And the “FREQUENCY (of selected phage clone among clones sequenced)” value (skeletal muscle; tissue skeletal muscle, dog)?
A: The value was 100%.

Q: How did the “FREQUENCY (of selected phage clone among clones sequenced)” value (cardiac muscle [2]; [3]) turn out when “MHHTRFY (Phage display library peptides) [Met-His-His-Thr-Arg-Phe-Tyr]” was run?
A: The value was 8%.

Q: With “SGTLFAN (Phage display library peptides) [peptide selected by 3 in vivo phage rounds in dog cardiac muscle]” as the substance, how does the “FREQUENCY (of selected phage clone among clones sequenced)” value (cardiac muscle [1]) read?
A: The value was 28%.

Q: “KAPLTPV (Phage display library peptides) [peptide selected by 3 in vivo phage rounds in dog cardiac muscle]” was tested. Which “FREQUENCY (of selected phage clone among clones sequenced)” value (cardiac muscle [1]) did it give?
A: The value was 8%.

Q: “WDANGKT (Phage display library peptides) [Trp-Asp-Ala-Asn-Gly-Lys-Thr]” was tested. Which “FREQUENCY (of selected phage clone among clones sequenced)” value (skeletal muscle; 2 in vitro on C2C12 myotubes followed by 2 in vivo rounds on skeletal muscle, mouse + dog) did it give?
A: Its value is 10%.

Q: And the “FREQUENCY (of selected phage clone among clones sequenced)” value (skeletal muscle; [4])?
A: Its value is 19%.

Q: Which “frequency of selected clone” value (murine muscle) does the source give for “HAIYPRH (Phage display library peptides) [peptide selected via four rounds in vivo, in murine muscle]” here?
A: The value was 4%.

Q: “HVHTLPT (Phage display library peptides) [His-Val-His-Thr-Leu-Pro-Thr]” was tested. Which “FREQUENCY (of selected phage clone among clones sequenced)” value (cardiac muscle [2]; [3]) did it give?
A: The value was 11%.

Q: For “GETRAPL (Phage display library peptides) [Gly-Glu-Thr-Arg-Ala-Pro-Leu]”, which “FREQUENCY (of selected phage clone among clones sequenced)” value (neuro muscular tissue) is on record?
A: Its value is 12%.

Q: What about the “FREQUENCY (of selected phage clone among clones sequenced)” value (skeletal muscle; [4]) of the same substance?
A: Its value is 37%.

Q: With “ASSLNIA (Phage display library peptides) [Ala-Ser-Ser-Leu-Asn-Ile-Ala]” as the substance, how does the “FREQUENCY (of selected phage clone among clones sequenced)” value (skeletal muscle; 3 in vitro rounds on C2C12 myotubes followed by 2 in vivo rounds on skeletal muscle, mouse) read?
A: Its value is 40%.

Q: Which “fraction in which the selected clone was found” value (cardiac muscle [1]; two rounds in vivo, in canine cardiac muscle) does the source give for “APVHRPL (Phage display library peptides) [peptide selected via two rounds in vivo, in canine cardiac muscle]” here?
A: Its value is “found in the washed tissue fraction”.

Q: Which “FREQUENCY (of selected phage clone among clones sequenced)” value (cardiac muscle [2]; 3 in vivo rounds in cardiac muscle) does the source give for “QWHGPLH (Phage display library peptides) [Gln-Trp-His-Gly-Pro-Leu-His]” here?
A: Its value is 20%.
